Experimental data: patent US4837223A, “(S)-alpha-ethyl-2-oxo-1-pyrrolidineacetamide compositions” (UCB Societe Anonyme, priority 1984, dated 1989)

Assays:
[1] = Protection against cerebral ischemia (rats), survival after ligature of the 2 common carotids; type: in vivo, rat (male Wistar); details: for lowest active dose (protects against lethality induced by simultaneous ligature of the two carotids, from this dose upwards): intraperitoneal; for Number of surviving animals, treated: survivors/treated, 24 hours
Experimental: II. Protection against cerebral ischemia (rats)
a. Principle (C. GIURGEA and F. MOURAVIEFF-LESUISSE; see above under Ia.
Electroencephalographic controls have shown that the ligature of the 2 common carotids in the rat causes a true cerebral ischemia: the electroencephalogram trace flattens and even becomes isoelectric (electric silence).
Male Wistar rats weighing between 250 and 350 g are anesthetized with pentobarbital administered intraperitoneally at a dose of 50 mg/kg (0.5 ml/100 g).
Immediately after the anesthesia, the animals are administered intraperitoneally with an amount of 0.5 ml/100 g, either the compound to be tested dissolved in an isotonic sodium chloride solution (treated animals), or only an isotonic sodium chloride solution or placebo (control animals). About 20 minutes later, the 2 common carotids are exposed and about 10 minutes later ligatured simultaneously. This operation is effected simultaneously on the control animals and the treated animals.
An hour after administration of the compound to be tested or of the placebo, there is again administered intraperitoneally the same dose of either the compound to be tested (to the treated animals) or the placebo (to the control animals).
5 hours after the first administration, there is administered for the third time the same dose of either the compound to be tested (to the surviving treated animals) or the placebo (to the surviving control animals). 24 hours after the first administration the efficacy of the ligature is verified in all animals, under pentobarbital anesthesia, by section of the carotids downstream of the ligature. The number of surviving animals is recorded among both the treated animals and the control animals. For each dose of compound tested, the number of surviving animals among those treated with the compound is compared with the number of surviving animals among the control animals. The difference expresses the protective activity of the compound against the lethality induced by the simultaneous ligature of the 2 carotids. The statistical significance (P) of this difference is evaluated by the Brandt-Snedecor test.

[2] = test system: male mouse and male rat; experiment: Toxicity, conclusion from LD50 in mouse and rat; type: in vivo; details: for toxicity: intravenous, mouse and rat
Excerpt: (§1) Table III below gives, for compounds A and B, the LD50, in mg/kg, determined on the male mouse and the male rat after intravenous administration: […]

[3] = Toxicity, LD50 after intravenous administration, mouse; details: in vivo, male mouse
Excerpt: as §1

[4] = Pharmazie, 37/11, (1982), 753-765; cited from earlier work
[5] = Toxicity, LD50 after intravenous administration, rat; details: in vivo, male rat
Excerpt: as §1

[6] = Protection against hypoxia (mouse), survival in atmosphere of progressively decreasing oxygen; type: in vivo, mouse (male, NMRI strain); details: for minimal effective dose: Mus musculus, po, read-out: 1st effective dose (increases survival of animals deprived of oxygen, from this dose upwards); for Number of surviving animals, treated: survivors/treated
Excerpt: I. Protection against hypoxia (mouse)
a. Principle (C. GIURGEA and F. MOURAVIEFF-LESUISSE; Proc. Xth Intern. Congr. of the Coll. Intern. Neuro-psych.-Pergamon Press, Oxford and New York, 1978, p. 1623-1631).
Due to the particular sensitivity of the nervous system to this type of aggression, the results obtained in this test can be interpreted as a measure of the resistance of the central nervous system. Compounds which increase the resistance of the animals to this stress are suitable for the treatment and prevention of hypoxic type aggressions of the central nervous system.
The apparatus consists of an airtight transparent cage 37 cm high, 39 cm deep and 97 cm wide. This 140 liter cage is provided with 60 transparent compartments each 6×10×10 cm, making it possible to separately accomodate 60 mice.
A fan ensures circulation of the atmosphere between the compartments through a grid floor. The cage is equipped with a device for introducing nitrogen at a constant flow rate, and with an orifice communicating with the ambient atmosphere. Male mice (NMRI strain) weighing 20 to 22 g, are kept fasting as from the day before the test. The experiment is effected on the following day, simultaneously on 3 groups of 20 mice; a control group is given water (25 ml/kg) orally, and the other two groups are each given orally a compound to be tested.
25 minutes after the administration, the animals are distributed at random amongst the compartments so that none of the three groups is concentrated in a preferred area of the cage.
30 minutes after administration, the cage is closed and nitrogen is admitted into it at a constant flow rate (7.75 liters of technical grade nitrogen per minute) for about 37 minutes, at which stage the atmosphere contains 3.7% oxygen.
The cage is left closed until the critical moment where no more than 3 survivors are observed among the 20 control animals. At that moment, the cage is opened and atmospheric air admitted into it. A few moments later the survivors in each group of animals are counted.
For each dose of compound to be tested, the experiments are repeated once or twice, and the results pooled to obtain a minimum of 40 (or 60) animals treated per dose and 40 (or 60) corresponding control animals.
For each dose of compound tested, the number of surviving animals among those treated with the compound is compared with the number of surviving animals among the control animals. The difference between these numbers expresses the protective activity of the compound against hypoxia caused by oxygen deprivation. The statistical significance (P) of this difference is evaluated by the Fischer-Yates test.

[7] = intraperitoneal dose 0.32 mmol/kg

Compound | lowest active dose (protects against lethality induced by simultaneous ligature of the two carotids, from this dose upwards) [1] [mmol/kg] | Number of surviving animals, treated [1, 7] | Number of surviving animals, treated ([1]; intraperitoneal dose 0.64 mmol/kg) | toxicity [2] | LD50 [3] [mg/kg] | protective activity against aggressions of the central nervous system caused by hypoxias, cerebral ischemia, etc. [4] | LD50 [5] [mg/kg] | minimal effective dose [6] [µmol/kg] | Number of surviving animals, treated ([6]; oral dose 0.032 mmol/kg) | Number of surviving animals, treated ([6]; oral dose 0.1 mmol/kg) | Number of surviving animals, treated ([6]; oral dose 0.16 mmol/kg) | Number of surviving animals, treated ([6]; oral dose 0.32 mmol/kg) | Number of surviving animals, treated ([1]; intraperitoneal dose 0.1 mmol/kg) | Number of surviving animals, treated ([1]; intraperitoneal dose 0.16 mmol/kg) | protective activity against ischemia relative to the racemate ([1]; vs racemate (compound A)) [times] | toxic dose compared with active dose ([2]; in vivo) | Number of surviving animals, treated ([6]; oral dose 0.016 mmol/kg) | protective activity against hypoxia relative to the racemate ([6]; vs racemate (compound A)) [times]
CCC(C(N)=O)N1CCCC1=O (racemic) [A, Racemic alpha-ethyl-2-oxo-1-pyrrolidineacetamide, reference compound] | 0.64 | 8/29 | 21/30 | very low toxicity | 1790 | possesses a protective activity | 1500 | 320 | 16/60 | 7/60 | 12/60 | 30/60 | – | – | – | – | – | –
CC[C@@H](C(N)=O)N1CCCC1=O [B, (S)-alpha-ethyl-2-oxo-1-pyrrolidineacetamide] | 0.16 | 19/29 | – | very low toxicity | 1080 | – | 1040 | 32 | 17/40 | 19/40 | 19/40 | 17/40 | 14/29 | 14/30 | 4 | toxic dose is well above the active dose | 11/40 | 10
